Data on 6 compounds can be found in patent EP4644375A1, “SUBSTITUTED HYDROQUINOLINES FOR THE TREATMENT OF GLIOBLASTOMA MULTIFORME” (Molius Saglik Teknolojileri Anonim Sirketi, priority 2024, dated 2025).

The subject of series [1] is U138-MG human glioma cell. Put plainly: Cell proliferation analysis (MTT). The class given is cell-based. The settings on record: for activity at 10 µM / inhibition at 10 µM: Homo sapiens, 48 h, two days, MTT.
A further series deals with U87-MG human glioma cell. Put plainly: Cell proliferation analysis (MTT). Conditions: for activity at 10 µM / inhibition at 10 µM: Homo sapiens, U-87 MG, 48 h, two days, MTT. The class given is cell-based.
The next series relates to GBM xenograft rat model. The series is described as follows: In vivo GBM rat model: histopathological examination of brain tissues. Conditions: H&E, GBM rats, 30 mg/kg oral, 5 days. The protocol:
An in Vivo study was performed to assess the therapeutic potential of TR-G002, TR-G045, TR-G053, TR-G066, TR-G071 and TR-G091 in the GBM xenograft rat model when administered orally by gavage for five consecutive days. 152 female rats of the Sprague Dawley strain were allocated to the study. Six groups of sixteen females were given dose of 30 mg/kg of the respective target compounds. […] The study design can be seen in Fig. 11 and Table 10.
Female Sprague Dawley rats (age: 6-8 weeks; weight: 255-310 g; ATADEM, Erzurum, Turkey) were utilized in the study. Rats underwent anaesthesia with 5% isoflurane, maintained at 2% isoflurane (1 L/min oxygen), and were positioned in a stereotactic frame for cell implantation (Stoelting Co., IL). […] A burr hole was drilled 1-mm anterior and 3-mm lateral to the right bregma. A microsyringe (Hamilton 1700 series) containing 5×10^4 U87-MG cells suspended in 5 µL of medium at 37 °C was advanced to a depth of 4 mm into the brain. The cells were injected at a rate of 3 µL/ min. Bone wax was used to fill the burr hole to prevent cell suspension reflux. The incision was sutured, and 1 mL of Meloxicam (5 mg/mL; Metacam, Boehringer Ingelheim Vetmedica, Ingelheim, Germany) was administered via a subcutaneous injection.
Fourteen days after inoculation, tumor development in rats was visualized and confirmed through magnetic resonance imaging (MRI). Rats confirmed to have developed tumors were then distributed into six different groups for treatment. […] 9 days after the final treatment dose, the rats underwent another MRI scan and blood and brain samples were taken under anaesthesia.
Brain tissue samples were fixed in a 10% buffered formaldehyde solution. After fixation, the tissues were processed through graded alcohol and xylene series and embedded in paraffin blocks. Sections of 5 µm thickness were taken from the paraffin blocks at intervals of 50-100 µm. Hematoxylin and eosin staining was performed on these sections to evaluate histopathological changes. Histopathological findings included tumor focus size, necrotic area, vascular proliferation, and cellular proliferation patterns. Tumor focus size was categorized as follows based on the diameter measured with a 4X objective on the microscope: >3500 µm was considered very severe, 3499-2000 µm severe, 1999-1000 µm moderate, 999-500 µm mild, and <500 µm very mild. Necrotic area size was classified based on the diameter of necrosis: >1500 µm as very severe, 1499-1000 µm severe, 999-500 µm moderate, 499-200 µm mild, and <199 µm very mild.

Series [2] in a line: In vivo GBM rat model: plasma chemistry. The arrangement: CREA. / UA / TCHOL / HDLC: unit not given here. Conditions: for ALP / ALT / AST / CREA. / GLU / HDLC / LDH / LDL C / TCHOL / TG / UA: GBM rats, 30 mg/kg oral, 5 days, plasma at necropsy; for levels of AST, ALT and LDH: in comparison to the levels in untreated GBM rats. The protocol: The parameters that were analysed can be seen in Table 11.

Consider `C=CCOC(=O)COc1ccc2c(c1)CCC(=O)N2` [TR-G071, Allyl 2-((2-oxo-1,2,3,4-tetrahydroquinolin-6-yl)oxy)acetate], for which, in series [1], the activity at 10 µM turned out to be 100% and the inhibition at 10 µM came to 0%. Moreover, in the series on U87-MG human glioma cell, the activity at 10 µM amounted to 97% and the inhibition at 10 µM turned out to be 3%. In the series with GBM xenograft rat model, the “cellular proliferation / mitosis” value was “moderate levels of mitosis”, the “necrosis (grade)” value is given as “moderate (999-500 µm moderate)”, the “tumor focus (description)” value is on record as “expanded tumor focus” and the vascular proliferation result is recorded as “moderate”. In series [2], this compound registered an ALP of 130.5 IU/L, an ALT of 61.25 IU/L, an AST of 132.5 IU/L and a CREA. of 0.34. Moreover, in series [2], the GLU is 295 mg/dL, the HDLC was 34.9, the LDH came out at 504.2 IU/L and the “LDL C” value came out at 5.65 mmol/L. Moreover, in series [2], the TCHOL is given as 53.35, the TG stood at 129 mg/dL and the UA was 1.69.

`C=Cc1ccc(COc2ccc3c(c2)CCC(=O)N3)cc1` [TR-G053, 6-((4-vinylbenzyl)oxy)-3,4-dihydroquinolin-2(1H)-one]: in series [1], the activity at 10 µM was determined as 53% and the inhibition at 10 µM was 47%. In the series with U87-MG human glioma cell, the lowest cell proliferation is recorded as 42%, the activity at 10 µM was 42% and the inhibition at 10 µM is 58%. Besides, in the series on U87-MG human glioma cell (ranking), the “top 5 target compounds whose treatment resulted in the lowest proliferation” value is listed as “top 5”. Also, in the series with GBM xenograft rat model, the “cellular proliferation / mitosis” value is on record as “intense mitosis around blood vessels”; the “necrosis (grade)” value was “Severe”; the “tumor focus (description)” value was “tumor focus including both grey and white matter”. In series [2], this compound had an ALP of 125.67 IU/L, an ALT of 44.57 IU/L, an AST of 96.87 IU/L and a CREA. of 0.34. Besides, in series [2], the GLU amounted to 293 mg/dL, the HDLC worked out at 34.33, the LDH came out at 514 IU/L and the “LDL C” value came to 5.63 mmol/L. For the same compound, in series [2], the TCHOL worked out at 56.33; the TG turned out to be 117 mg/dL; the UA amounted to 1.64; the “levels of AST, ALT and LDH” value was “significantly decreased”.

On to `COc1cc(NC(=O)COc2ccc3c(c2)CCC(=O)N3)cc(OC)c1` [TR-G091, N-(3,5-dimethoxyphenyl)-2-((2-oxo-1,2,3,4-tetrahydroquinolin-6-yl)oxy)acetamide], for which, in series [1], the activity at 10 µM was found to be 86% and the inhibition at 10 µM stood at 14%. Moreover, in the series with U87-MG human glioma cell, the activity at 10 µM is 101% and the inhibition at 10 µM was -1%. Besides, in the series on GBM xenograft rat model, the “necrosis (grade)” value is on record as “Moderate”; the “tumor focus (description)” value is “extended tumor focus encompassing both grey and white matter”. Moreover, in series [2], the ALP came out at 122.87 IU/L, the ALT is reported as 46.97 IU/L, the AST is given as 127.9 IU/L and the CREA. is 0.29. Also, in series [2], the GLU was 299 mg/dL, the HDLC is 36.57, the LDH worked out at 546.17 IU/L and the “LDL C” value was 5.03 mmol/L. In series [2], this compound returned a TCHOL of 54.43, a TG of 121 mg/dL and a UA of 1.7.

Consider `CC(C)CCOc1ccc2c(c1)CCC(=O)N2` [TR-G002, 6-(isopentyloxy)-3,4-dihydroquinolin-2(1H)-one], for which, in series [1], the activity at 10 µM worked out at 52% and the inhibition at 10 µM stood at 48%. In addition, in the series on U87-MG human glioma cell, the activity at 10 µM is 48% and the inhibition at 10 µM was determined as 52%. For the same compound, in the series on GBM xenograft rat model, the “cellular proliferation / mitosis” value is reported as “mild”, the “tumor focus (description)” value is given as “significantly reduced tumor focus” and the vascular proliferation entry was “mild”. In series [2], this compound yielded an ALP of 124.22 IU/L, an ALT of 48.37 IU/L, an AST of 129.93 IU/L and a CREA. of 0.31. In series [2], the GLU came out at 317 mg/dL, the HDLC turned out to be 37.5, the LDH came out at 535.72 IU/L and the “LDL C” value was 4.42 mmol/L. In series [2], this compound yielded a TCHOL of 54.38, a TG of 115 mg/dL and a UA of 1.71.

For `O=C1CCc2cc(OS(=O)(=O)c3cccc4ccccc34)ccc2N1` [TR-G045, 2-oxo-1,2,3,4-tetrahydroquinolin-6-yl naphthalene-1-sulfonate], in series [1], the activity at 10 µM is 71% and the inhibition at 10 µM amounted to 30%. Further, in the series on U87-MG human glioma cell, the activity at 10 µM worked out at 71% and the inhibition at 10 µM was determined as 29%. Moreover, in the series on GBM xenograft rat model, the “cellular proliferation / mitosis” value is “moderate mitosis”, the “necrotic cells (description)” value was “Necrotic cells were present in the central regions”, the “tumor focus size (grade)” value is on record as “moderate (1999-1000 µm moderate)” and the vascular proliferation result is given as “vascular proliferation in the vicinity of healthy tissue”. In series [2], this compound showed an ALP of 138.47 IU/L, an ALT of 54.5 IU/L, an AST of 104.7 IU/L and a CREA. of 0.35. Moreover, in series [2], the GLU turned out to be 316 mg/dL, the HDLC was 37.58, the LDH was determined as 506.78 IU/L and the “LDL C” value stood at 5.28 mmol/L. In series [2], the TCHOL was determined as 56.52; the TG stood at 120 mg/dL; the UA worked out at 1.6; the “levels of AST, ALT and LDH” value was “significantly decreased”.

Consider `O=C(COc1ccc2c(c1)CCC(=O)N2)N/N=C/c1cnc(-c2ccc(Cl)cc2)nc1` [TR-G066, (E)-N'-((2-(4-chlorophenyl)pyrimidin-5-yl)methylene)-2-((2-oxo-1,2,3,4-tetrahydroquinolin-6-yl)oxy)acetohydrazide], for which, in series [1], the lowest cell proliferation is recorded as 39% and the inhibition at 10 µM was 62%. Also, the inhibition at 10 µM with U87-MG human glioma cell was 33%. For the same compound, the “tumor focus (description)” value in the series on GBM xenograft rat model was “few tumor cells, particularly around blood vessels, rather than a distinct tumor focus shape”. In series [2], this compound registered an ALP of 137.08 IU/L, an ALT of 38.94 IU/L, an AST of 96.48 IU/L and a CREA. of 0.38. Moreover, in series [2], the GLU worked out at 295 mg/dL, the HDLC is 34.24, the LDH is recorded as 476.16 IU/L and the “LDL C” value was found to be 4.94 mmol/L. Besides, in series [2], the TCHOL is 58.56; the TG was found to be 122 mg/dL; the UA came out at 1.7; the “levels of AST, ALT and LDH” value was “significantly decreased”.

One may read the inhibition as the drop in the measured response relative to a control, in per cent.
